Source: ChEMBL document CHEMBL5291721, “A preclinical secondary pharmacology resource illuminates target-adverse drug reaction associations of marketed drugs” (Nat Commun, 2023)

Columns and labels:
Acetylcholinesterase = Acetylcholinesterase (Homo sapiens, UniProt P22303); type: functional
[1] = target: T1, Alpha-2A adrenergic receptor (Homo sapiens, UniProt P08913)
T1 sequence (P08913 whole entry): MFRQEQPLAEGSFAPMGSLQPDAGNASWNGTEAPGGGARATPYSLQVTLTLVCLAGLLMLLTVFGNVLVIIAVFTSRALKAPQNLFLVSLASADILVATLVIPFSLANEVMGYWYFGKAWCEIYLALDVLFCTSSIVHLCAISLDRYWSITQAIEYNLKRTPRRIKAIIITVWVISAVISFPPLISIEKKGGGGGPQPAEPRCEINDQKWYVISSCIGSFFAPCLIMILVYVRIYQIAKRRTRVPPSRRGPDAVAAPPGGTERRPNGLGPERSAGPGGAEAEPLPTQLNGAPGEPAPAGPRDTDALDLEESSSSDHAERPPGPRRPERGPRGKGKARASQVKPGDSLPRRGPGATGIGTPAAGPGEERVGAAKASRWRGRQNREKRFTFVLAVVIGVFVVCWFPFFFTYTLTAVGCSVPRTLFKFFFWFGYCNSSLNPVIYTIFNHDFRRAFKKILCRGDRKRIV

[2] = target: T2, Muscarinic acetylcholine receptor M2 (Homo sapiens, UniProt P08172)
T2 sequence (P08172 whole entry): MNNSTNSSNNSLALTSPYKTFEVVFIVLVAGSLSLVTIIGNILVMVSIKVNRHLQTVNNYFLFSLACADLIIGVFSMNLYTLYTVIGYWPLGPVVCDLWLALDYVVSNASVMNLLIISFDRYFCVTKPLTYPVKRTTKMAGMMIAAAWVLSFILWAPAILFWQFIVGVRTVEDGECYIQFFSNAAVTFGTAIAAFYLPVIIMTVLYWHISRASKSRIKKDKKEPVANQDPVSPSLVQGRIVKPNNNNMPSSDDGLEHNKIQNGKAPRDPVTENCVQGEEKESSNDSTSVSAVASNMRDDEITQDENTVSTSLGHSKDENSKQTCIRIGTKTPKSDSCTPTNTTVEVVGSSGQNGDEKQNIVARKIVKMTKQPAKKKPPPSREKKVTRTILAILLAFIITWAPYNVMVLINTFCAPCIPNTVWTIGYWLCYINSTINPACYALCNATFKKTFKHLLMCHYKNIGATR

Prothrombin = Prothrombin (Homo sapiens, UniProt P00734); type: functional
Histamine H3 receptor = Histamine H3 receptor (Homo sapiens, UniProt Q9Y5N1)
Histamine H3 receptor, sequence (Q9Y5N1 whole entry): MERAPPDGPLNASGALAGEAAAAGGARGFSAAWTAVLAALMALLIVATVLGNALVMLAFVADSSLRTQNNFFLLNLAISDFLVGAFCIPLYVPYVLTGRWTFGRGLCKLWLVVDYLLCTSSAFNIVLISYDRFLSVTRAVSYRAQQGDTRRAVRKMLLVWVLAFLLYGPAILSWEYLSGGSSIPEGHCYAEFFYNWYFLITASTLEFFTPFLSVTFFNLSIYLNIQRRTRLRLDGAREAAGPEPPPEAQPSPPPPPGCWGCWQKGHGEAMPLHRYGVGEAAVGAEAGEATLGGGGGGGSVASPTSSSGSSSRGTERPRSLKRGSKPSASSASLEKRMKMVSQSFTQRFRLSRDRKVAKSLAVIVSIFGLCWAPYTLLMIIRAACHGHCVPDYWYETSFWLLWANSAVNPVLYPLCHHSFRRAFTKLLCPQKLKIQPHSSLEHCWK

[3] = target: T3, 5-hydroxytryptamine receptor 1A (Homo sapiens, UniProt P08908)
T3 sequence (P08908 whole entry): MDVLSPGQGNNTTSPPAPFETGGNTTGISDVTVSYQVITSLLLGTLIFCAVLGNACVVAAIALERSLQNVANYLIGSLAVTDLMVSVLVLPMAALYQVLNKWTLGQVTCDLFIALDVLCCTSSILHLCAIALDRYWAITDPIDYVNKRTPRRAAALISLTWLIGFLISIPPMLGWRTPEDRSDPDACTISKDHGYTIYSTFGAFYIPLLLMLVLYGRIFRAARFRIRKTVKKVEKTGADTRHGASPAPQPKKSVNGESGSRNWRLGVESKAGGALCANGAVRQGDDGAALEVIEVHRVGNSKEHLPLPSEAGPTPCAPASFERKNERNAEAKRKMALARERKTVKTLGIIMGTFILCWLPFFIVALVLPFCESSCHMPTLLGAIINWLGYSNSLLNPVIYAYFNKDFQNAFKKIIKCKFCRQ

[4] = target: 5-hydroxytryptamine receptor 2B (Homo sapiens, UniProt P41595); type: functional, cell-based
5-hydroxytryptamine receptor 2B, sequence (P41595 whole entry): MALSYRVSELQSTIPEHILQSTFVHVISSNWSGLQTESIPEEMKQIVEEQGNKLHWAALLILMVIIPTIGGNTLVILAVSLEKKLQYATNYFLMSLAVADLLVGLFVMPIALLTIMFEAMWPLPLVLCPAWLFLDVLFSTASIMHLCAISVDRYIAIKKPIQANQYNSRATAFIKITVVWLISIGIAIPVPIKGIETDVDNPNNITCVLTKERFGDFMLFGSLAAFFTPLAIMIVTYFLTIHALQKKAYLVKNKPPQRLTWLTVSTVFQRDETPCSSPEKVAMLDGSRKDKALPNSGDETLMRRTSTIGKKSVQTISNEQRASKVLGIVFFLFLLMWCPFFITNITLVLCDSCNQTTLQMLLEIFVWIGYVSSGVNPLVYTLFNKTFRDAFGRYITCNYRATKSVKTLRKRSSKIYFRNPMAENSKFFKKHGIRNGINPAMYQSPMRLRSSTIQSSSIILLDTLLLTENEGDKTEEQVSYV

[5] = target: T4, Amine oxidase [flavin-containing] A (Homo sapiens, UniProt P21397); type: functional
T4 sequence (P21397 whole entry): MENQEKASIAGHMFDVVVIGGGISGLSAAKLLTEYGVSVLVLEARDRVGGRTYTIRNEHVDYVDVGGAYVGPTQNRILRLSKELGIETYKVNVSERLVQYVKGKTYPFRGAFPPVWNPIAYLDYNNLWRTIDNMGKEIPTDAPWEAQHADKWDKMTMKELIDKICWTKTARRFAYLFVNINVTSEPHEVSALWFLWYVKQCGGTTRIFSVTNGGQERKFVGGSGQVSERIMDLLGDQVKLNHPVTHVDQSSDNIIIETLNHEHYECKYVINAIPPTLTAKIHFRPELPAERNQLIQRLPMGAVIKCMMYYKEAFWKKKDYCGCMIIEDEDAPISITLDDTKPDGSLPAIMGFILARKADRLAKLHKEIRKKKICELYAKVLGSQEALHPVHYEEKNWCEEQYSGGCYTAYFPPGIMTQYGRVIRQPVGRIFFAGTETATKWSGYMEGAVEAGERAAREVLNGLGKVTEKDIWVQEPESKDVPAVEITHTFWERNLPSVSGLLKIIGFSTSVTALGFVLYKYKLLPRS

[6] = target: cGMP-inhibited 3',5'-cyclic phosphodiesterase 3A (Homo sapiens, UniProt Q14432); type: functional
cGMP-inhibited 3',5'-cyclic phosphodiesterase 3A, sequence (Q14432 whole entry): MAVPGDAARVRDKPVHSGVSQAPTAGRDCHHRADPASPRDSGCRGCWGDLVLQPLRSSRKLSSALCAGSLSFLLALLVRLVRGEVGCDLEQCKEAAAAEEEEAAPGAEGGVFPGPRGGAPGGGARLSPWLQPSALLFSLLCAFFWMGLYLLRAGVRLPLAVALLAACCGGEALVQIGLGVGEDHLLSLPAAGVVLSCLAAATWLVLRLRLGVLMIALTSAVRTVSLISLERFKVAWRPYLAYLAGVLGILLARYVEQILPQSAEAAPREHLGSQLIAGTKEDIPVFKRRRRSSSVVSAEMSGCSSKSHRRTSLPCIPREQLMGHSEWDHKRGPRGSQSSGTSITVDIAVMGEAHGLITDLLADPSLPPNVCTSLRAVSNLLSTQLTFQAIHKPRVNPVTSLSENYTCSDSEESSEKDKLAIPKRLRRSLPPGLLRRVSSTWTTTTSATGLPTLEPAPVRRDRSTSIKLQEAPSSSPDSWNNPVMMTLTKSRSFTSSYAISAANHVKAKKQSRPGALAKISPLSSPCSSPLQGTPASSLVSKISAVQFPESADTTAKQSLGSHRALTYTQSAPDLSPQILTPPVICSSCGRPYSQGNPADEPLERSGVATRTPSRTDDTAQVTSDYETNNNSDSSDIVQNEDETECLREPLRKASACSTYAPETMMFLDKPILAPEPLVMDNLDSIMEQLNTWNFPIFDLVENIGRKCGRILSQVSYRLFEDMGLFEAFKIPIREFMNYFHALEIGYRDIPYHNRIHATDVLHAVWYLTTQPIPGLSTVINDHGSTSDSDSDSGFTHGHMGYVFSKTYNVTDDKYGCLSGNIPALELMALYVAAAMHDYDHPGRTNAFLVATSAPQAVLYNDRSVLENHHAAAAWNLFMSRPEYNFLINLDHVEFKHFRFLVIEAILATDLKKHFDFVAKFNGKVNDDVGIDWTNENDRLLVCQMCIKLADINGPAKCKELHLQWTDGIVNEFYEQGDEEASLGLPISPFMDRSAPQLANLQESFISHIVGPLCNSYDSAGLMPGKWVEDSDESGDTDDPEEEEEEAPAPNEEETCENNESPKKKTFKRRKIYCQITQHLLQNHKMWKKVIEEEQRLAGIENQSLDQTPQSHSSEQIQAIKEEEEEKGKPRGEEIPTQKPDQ

[7] = target: 3',5'-cyclic-AMP phosphodiesterase 4A (Homo sapiens, UniProt P27815); type: functional
3',5'-cyclic-AMP phosphodiesterase 4A, sequence (P27815 whole entry): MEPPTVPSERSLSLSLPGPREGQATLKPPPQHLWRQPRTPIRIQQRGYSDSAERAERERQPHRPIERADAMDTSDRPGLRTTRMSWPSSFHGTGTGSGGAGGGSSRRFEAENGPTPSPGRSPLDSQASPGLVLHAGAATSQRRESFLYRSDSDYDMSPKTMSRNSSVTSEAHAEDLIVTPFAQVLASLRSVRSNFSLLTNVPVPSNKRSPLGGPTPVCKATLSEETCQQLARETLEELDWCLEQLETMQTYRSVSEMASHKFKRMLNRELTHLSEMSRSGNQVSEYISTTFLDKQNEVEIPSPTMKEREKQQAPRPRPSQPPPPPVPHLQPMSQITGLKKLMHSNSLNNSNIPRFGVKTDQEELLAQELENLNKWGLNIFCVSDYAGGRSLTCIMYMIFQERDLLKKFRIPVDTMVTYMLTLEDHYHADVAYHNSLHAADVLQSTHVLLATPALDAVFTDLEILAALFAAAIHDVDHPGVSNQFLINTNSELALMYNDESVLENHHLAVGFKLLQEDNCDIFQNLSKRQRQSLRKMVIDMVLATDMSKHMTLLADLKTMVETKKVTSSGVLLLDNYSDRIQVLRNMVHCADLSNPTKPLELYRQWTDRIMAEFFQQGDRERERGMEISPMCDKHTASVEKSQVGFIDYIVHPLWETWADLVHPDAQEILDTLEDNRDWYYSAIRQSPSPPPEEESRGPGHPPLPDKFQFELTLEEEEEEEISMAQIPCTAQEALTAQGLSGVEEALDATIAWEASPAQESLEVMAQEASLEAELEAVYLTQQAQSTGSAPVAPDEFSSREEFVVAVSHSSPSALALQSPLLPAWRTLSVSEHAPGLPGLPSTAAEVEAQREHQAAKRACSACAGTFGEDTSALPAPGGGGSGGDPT

[8] = target: Sodium-dependent dopamine transporter (Homo sapiens, UniProt Q01959)
Sodium-dependent dopamine transporter, sequence (Q01959 whole entry): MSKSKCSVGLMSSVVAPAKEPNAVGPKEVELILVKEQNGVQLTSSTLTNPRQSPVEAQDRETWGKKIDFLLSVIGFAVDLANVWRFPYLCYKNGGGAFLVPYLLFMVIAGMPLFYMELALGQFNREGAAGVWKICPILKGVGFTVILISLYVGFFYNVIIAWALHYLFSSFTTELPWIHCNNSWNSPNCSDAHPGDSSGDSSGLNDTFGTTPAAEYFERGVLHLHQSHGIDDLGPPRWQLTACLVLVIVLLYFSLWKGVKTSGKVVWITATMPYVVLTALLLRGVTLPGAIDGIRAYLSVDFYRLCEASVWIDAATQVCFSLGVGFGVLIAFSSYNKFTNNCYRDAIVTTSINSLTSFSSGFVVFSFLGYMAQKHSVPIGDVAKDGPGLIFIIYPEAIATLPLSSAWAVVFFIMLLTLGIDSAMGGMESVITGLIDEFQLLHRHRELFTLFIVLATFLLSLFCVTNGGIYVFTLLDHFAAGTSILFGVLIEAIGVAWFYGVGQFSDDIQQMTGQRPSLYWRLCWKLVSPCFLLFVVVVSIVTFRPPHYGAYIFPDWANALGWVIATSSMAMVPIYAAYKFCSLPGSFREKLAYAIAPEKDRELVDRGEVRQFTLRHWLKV

Thromboxane A2 receptor [9] = target: T5, Thromboxane A2 receptor (Homo sapiens, UniProt P21731); type: functional, cell-based
T5 sequence (P21731 whole entry): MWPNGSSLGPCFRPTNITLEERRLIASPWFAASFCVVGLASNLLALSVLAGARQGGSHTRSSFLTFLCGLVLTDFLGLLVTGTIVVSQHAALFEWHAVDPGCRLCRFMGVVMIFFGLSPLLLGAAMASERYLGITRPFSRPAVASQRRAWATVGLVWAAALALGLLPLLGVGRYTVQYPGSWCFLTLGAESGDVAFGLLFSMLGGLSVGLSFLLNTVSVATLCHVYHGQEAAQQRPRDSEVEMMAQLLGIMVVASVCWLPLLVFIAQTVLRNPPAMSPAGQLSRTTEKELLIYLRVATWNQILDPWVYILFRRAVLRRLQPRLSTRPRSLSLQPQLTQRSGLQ

Thromboxane A2 receptor [10] = target: T5, Thromboxane A2 receptor; type: functional, cell-based; remark: listed apart in the source
Further: assay procedure not described here.

Acetylcholinesterase, sequence (P22303 whole entry): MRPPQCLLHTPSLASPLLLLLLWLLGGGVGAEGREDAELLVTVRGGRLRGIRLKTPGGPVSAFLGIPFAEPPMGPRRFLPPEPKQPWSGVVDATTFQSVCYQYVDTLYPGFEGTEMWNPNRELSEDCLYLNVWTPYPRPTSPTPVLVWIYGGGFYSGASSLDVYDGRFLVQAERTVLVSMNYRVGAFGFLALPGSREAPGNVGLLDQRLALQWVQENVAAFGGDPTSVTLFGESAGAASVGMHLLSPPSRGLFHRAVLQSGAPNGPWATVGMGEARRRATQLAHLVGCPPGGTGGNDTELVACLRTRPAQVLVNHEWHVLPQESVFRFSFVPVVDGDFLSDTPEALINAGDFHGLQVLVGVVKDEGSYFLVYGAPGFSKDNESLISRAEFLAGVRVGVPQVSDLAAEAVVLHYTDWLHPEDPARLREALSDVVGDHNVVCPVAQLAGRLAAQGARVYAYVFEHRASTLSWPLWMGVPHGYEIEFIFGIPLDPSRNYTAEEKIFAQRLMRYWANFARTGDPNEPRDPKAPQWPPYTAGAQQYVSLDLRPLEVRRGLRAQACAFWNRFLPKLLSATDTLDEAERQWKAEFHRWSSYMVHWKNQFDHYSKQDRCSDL

Row | SMILES | AC50 (Acetylcholinesterase) | AC50 [1] | AC50 [2] | AC50 (Prothrombin) | AC50 (Histamine H3 receptor) | AC50 [3] | AC50 [4] | AC50 [5] | AC50 [6] | AC50 [7] | AC50 [8] | AC50 (Thromboxane A2 receptor [9]) | AC50 (Thromboxane A2 receptor [10])
1 | C[C@H](N[C@@H](CCc1ccccc1)C(=O)O)C(=O)N1Cc2ccccc2C[C@H]1C(=O)O | > 30 µM | > 30 µM | > 30 µM | > 30 µM | > 30 µM | > 30 µM | > 30 µM | > 30 µM | > 30 µM | > 30 µM | > 30 µM | > 30 µM | > 30 µM
2 | CC1(C)S[C@@H]2[C@H](/N=C/N3CCCCCC3)C(=O)N2[C@H]1C(=O)O [AMDINOCILLIN] | > 30 µM | > 30 µM | > 30 µM | > 30 µM | > 30 µM | > 30 µM | > 30 µM | > 30 µM | > 30 µM | > 30 µM | > 30 µM | > 30 µM | > 30 µM
3 | CC(=O)[C@]1(N)Cc2c(O)c3c(c(O)c2[C@@H](O[C@H]2C[C@H](O)[C@H](O)CO2)C1)C(=O)c1ccccc1C3=O [AMRUBICIN] | > 30 µM | > 30 µM | > 30 µM | > 30 µM | > 30 µM | > 30 µM | > 30 µM | > 30 µM | > 30 µM | > 30 µM | > 30 µM | 11.8 µM | > 1 µM
4 | CC(=O)OC[C@H]1O[C@@H](n2ncc(=O)[nH]c2=O)[C@H](OC(C)=O)[C@@H]1OC(C)=O [AZARIBINE] | > 30 µM | > 30 µM | > 30 µM | > 30 µM | > 30 µM | > 30 µM | > 30 µM | > 30 µM | > 30 µM | > 30 µM | > 30 µM | > 30 µM | > 30 µM
5 | Cc1cn([C@H]2O[C@@H](CO)[C@H](O)[C@H]2F)c(=O)[nH]c1=O [CLEVUDINE] | > 30 µM | > 30 µM | > 30 µM | > 30 µM | > 30 µM | > 30 µM | > 30 µM | > 30 µM | > 30 µM | > 30 µM | > 30 µM | > 30 µM | > 30 µM
6 | CC(=O)[C@H]1CC[C@H]2[C@@H]3C=CC4=CC(=O)CC[C@@]4(C)[C@@H]3CC[C@]12C [DYDROGESTERONE] | > 30 µM | > 30 µM | > 30 µM | > 30 µM | > 30 µM | > 30 µM | > 30 µM | > 30 µM | > 30 µM | > 30 µM | > 30 µM | > 30 µM | 25.1 µM
7 | CC(O)(P(=O)(O)O)P(=O)(O)O [ETIDRONIC ACID] | > 30 µM | > 30 µM | > 30 µM | > 30 µM | > 30 µM | > 30 µM | > 30 µM | > 30 µM | > 30 µM | > 30 µM | > 30 µM | > 30 µM | > 30 µM
8 | O=C(CCC/C=C\C[C@@H]1[C@@H](CC[C@@H](O)CCc2ccccc2)[C@H](O)C[C@@H]1O)OCCCCO[N+](=O)[O-] [LATANOPROSTENE BUNOD] | > 30 µM | > 30 µM | > 30 µM | > 30 µM | > 30 µM | > 30 µM | > 30 µM | > 30 µM | > 30 µM | > 30 µM | > 30 µM | > 30 µM | > 10 µM
9 | CCC[C@H](N[C@@H](C)C(=O)N1[C@H](C(=O)O)C[C@@H]2CCCC[C@@H]21)C(=O)OCC [PERINDOPRIL] | > 30 µM | > 30 µM | > 30 µM | > 30 µM | > 30 µM | > 30 µM | > 30 µM | > 30 µM | > 30 µM | > 30 µM | > 30 µM | > 30 µM | > 30 µM
